Values quoted from earlier work as cited in patent US9012171B2, “Systems and methods for measuring translation activity in viable cells” (Anima Cell Metrology, Inc., priority 2007, dated 2015).

System: premature termination codons (PTC)
Details: genetic disorders with premature termination codons in the coding sequence of a critical protein

O=C(O)c1cccc(-c2noc(-c3ccccc3F)n2)c1 [PTC124]
required protein produced, relative to normal concentrations: 1-5%
